Assay results taken from ChEMBL document CHEMBL1133834, “Design and synthesis of Pfmrk inhibitors as potential antimalarial agents” (Bioorg Med Chem Lett, 2001).

Columns and labels:
Protein kinase Pfmrk [1] = target: T1, Protein kinase Pfmrk (Plasmodium falciparum, UniProt P90584); assay: Inhibition of Plasmodium falciparum cyclin dependent protein kinase (Pfmrk)
T1 sequence (P90584 whole entry): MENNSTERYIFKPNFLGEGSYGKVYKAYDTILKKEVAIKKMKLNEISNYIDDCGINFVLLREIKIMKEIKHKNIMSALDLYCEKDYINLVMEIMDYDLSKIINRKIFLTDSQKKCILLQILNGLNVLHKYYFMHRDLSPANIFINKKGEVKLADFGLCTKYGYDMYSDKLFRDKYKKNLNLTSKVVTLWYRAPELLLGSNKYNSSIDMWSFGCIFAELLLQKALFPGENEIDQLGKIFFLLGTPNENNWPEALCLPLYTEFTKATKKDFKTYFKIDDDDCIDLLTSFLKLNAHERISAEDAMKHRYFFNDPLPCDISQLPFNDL

Protein kinase Pfmrk [2] = target: T1, Protein kinase Pfmrk; assay: Inhibition of Plasmodium falciparum cyclin dependent protein kinase (No inhibition)

SMILES: Oc1ccc2nc3oc4ccccc4c3c(O)c2c1
- IC50 (Protein kinase Pfmrk [1]): 187 µM

SMILES: Oc1c2ccccc2nc2oc3ccccc3c12
- IC50 (Protein kinase Pfmrk [1]): < 371 µM

SMILES: Oc1nc2ccccc2c2oc3ccccc3c12
- IC50 (Protein kinase Pfmrk [2]): Not Active

SMILES: Oc1ccc2nc(O)c3c4ccccc4oc3c2c1
- IC50 (Protein kinase Pfmrk [1]): 539 µM

SMILES: Oc1[nH]c2ccccc2c2nc3ccccc3c1-2
- IC50 (Protein kinase Pfmrk [2]): Not Active

SMILES: OCCOc1cccc(-c2cc3ccccc3nc2O)c1
- IC50 (Protein kinase Pfmrk [1]): 18 µM

SMILES: O=C(O)COc1cccc(-c2cc3ccccc3nc2O)c1
- IC50 (Protein kinase Pfmrk [1]): 102 µM
